For this test, the target named is T1, F508delCFTR (Homo sapiens, UniProt P13569, DEL508-508).
T1 construct: expressed in transfected cells; host or cells: CFBE41o- human lung-derived epithelial cells (CFBE4lo-F508delCFTR-HRP), doxycycline-inducible
Put plainly: Cell Surface Expression-Horse Radish Peroxidase (CSE-HRP) Assay.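 On Maximum % activity (with co-corrector): co-corrector and positive control are both the same reference corrector at 2 µM.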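 On Maximum % activity (without co-corrector): percent of the 2 µM on-plate positive control corrector response above DMSO.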 It is filed as cell-based. As to conditions: for Maximum % activity (with co-corrector): with co-corrector (2 μM); for Maximum % activity (with co-corrector) / Emax: maximum at any tested concentration, normalized to on-plate positive control; for Emax: without co-corrector, read-out: Maximum % activity (without co-corrector).

The mark [1] stands for this setting: test compound without co-corrector, read-out: EC50 (without co-corrector).
Setting [2] is: with co-corrector (2 μM of 3-[(2R,4R)-4-({[1-(2,2-difluoro-1,3-benzodioxol-5-yl)cyclopropyl]carbonyl}amino)-7-methoxy-3,4-dihydro-2H-chromen-2-yl]benzoic acid), read-out: EC50 (with co-corrector).

The structures appear in SMILES notation. pEC50: −log10 of the molar value. Read-outs that look alike come from different tables or passages of the source.

The source of these data is patent US20180099931A1 (AbbVie S.à.r.l., priority 2016, published 2018).

T1 sequence (P13569 with tags, fused parts or gaps DEL508-508): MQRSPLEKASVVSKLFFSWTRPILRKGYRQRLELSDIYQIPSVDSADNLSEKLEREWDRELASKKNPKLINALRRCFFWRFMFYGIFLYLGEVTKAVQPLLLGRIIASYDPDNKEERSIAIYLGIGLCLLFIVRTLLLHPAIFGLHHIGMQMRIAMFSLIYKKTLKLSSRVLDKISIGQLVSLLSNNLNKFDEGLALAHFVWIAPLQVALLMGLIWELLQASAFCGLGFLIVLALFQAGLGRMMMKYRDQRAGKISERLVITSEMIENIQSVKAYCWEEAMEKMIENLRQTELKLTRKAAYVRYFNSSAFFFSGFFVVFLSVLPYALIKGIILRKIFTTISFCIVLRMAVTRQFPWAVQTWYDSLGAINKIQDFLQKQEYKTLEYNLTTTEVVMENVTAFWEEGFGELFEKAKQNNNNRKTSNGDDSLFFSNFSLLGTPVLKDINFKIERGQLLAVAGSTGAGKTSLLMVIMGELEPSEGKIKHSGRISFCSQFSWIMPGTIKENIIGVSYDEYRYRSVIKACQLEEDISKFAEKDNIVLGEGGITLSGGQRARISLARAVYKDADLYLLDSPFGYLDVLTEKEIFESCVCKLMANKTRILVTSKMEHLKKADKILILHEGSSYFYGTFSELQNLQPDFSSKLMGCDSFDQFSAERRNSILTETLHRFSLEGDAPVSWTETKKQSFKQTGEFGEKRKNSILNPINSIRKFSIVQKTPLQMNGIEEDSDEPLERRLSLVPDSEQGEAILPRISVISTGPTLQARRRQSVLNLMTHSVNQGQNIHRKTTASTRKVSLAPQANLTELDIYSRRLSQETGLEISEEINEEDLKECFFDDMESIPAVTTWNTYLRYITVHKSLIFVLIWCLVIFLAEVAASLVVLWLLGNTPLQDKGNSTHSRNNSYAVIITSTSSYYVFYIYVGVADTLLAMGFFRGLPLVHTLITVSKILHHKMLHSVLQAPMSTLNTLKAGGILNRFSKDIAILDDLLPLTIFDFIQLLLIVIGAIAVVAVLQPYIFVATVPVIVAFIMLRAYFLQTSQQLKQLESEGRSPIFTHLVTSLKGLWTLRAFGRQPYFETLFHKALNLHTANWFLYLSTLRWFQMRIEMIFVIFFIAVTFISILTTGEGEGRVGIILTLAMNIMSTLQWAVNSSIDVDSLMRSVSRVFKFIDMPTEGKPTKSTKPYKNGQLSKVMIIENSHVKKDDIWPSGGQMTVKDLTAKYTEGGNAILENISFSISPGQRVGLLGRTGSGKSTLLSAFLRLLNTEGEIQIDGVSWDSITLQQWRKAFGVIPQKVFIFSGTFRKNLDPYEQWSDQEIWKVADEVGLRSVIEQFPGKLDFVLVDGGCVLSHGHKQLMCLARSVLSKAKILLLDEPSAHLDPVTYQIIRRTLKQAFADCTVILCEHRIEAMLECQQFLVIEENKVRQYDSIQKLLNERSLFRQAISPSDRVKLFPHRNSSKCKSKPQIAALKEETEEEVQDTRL

On to `COc1ncc(C(F)(F)F)cc1CN[C@H]1[C@H](C(C)(C)C)[C@@H](C(=O)O)N(C(=O)C2CCCCC2)[C@H]1c1cccc2c1OC(C)(C)C2` [Example 118, (2S,3S,4S,5S)-3-tert-butyl-1-(cyclohexanecarbonyl)-5-(2,2-dimethyl-2,3-dihydro-1-benzofuran-7-yl)-4-({[2-methoxy-5-(trifluoromethyl)pyridin-3-yl]methyl}amino)pyrrolidine-2-carboxylic acid], for which the “Maximum % activity (with co-corrector)” value is reported as “+++ (≥350)” and the Emax was in the range of 100 to 200%. The pEC50 under setting [1] is greater than 6.00. For the same compound, under setting [2], the pEC50 is greater than 6.00.

`COc1ncc(C2CCC2)cc1CN(C)[C@H]1[C@H](C(C)(C)C)[C@@H](C(=O)O)N(C(=O)[C@@H]2CCCCO2)[C@H]1c1ccccc1C(C)C` [Example 119, (2S,3S,4S,5S)-3-tert-butyl-4-{[(5-cyclobutyl-2-methoxypyridin-3-yl)methyl](methyl)amino}-1-[(2S)-oxane-2-carbonyl]-5-[2-(propan-2-yl)phenyl]pyrrolidine-2-carboxylic acid]: the “Maximum % activity (with co-corrector)” value is on record as “+++ (≥350)” and the Emax was greater than 200%. Besides, under setting [1], the pEC50 was greater than 6.00. The pEC50 under setting [2] was greater than 6.00.

On to `COc1ccc(C(F)(F)F)cc1CN[C@H]1[C@H](C(C)(C)C)[C@@H](C(=O)O)N(C(=O)[C@H](OC)c2ccccc2)[C@H]1c1ccccc1` [Example I-20], for which the “Maximum % activity (with co-corrector)” value is “+++ (≥350)” and the Emax was greater than 200%. Further, the negative logarithm of the EC50 (pEC50) under setting [1] is 5.00 to 6.00. For the same compound, the negative-log EC50 (pEC50) under setting [2] was greater than 6.00.

Regarding `COc1ccc(C(F)(F)F)cc1CN[C@H]1[C@H](C(C)(C)C)[C@@H](C(=O)O)N(C(=O)[C@@H](OC)c2ccccc2)[C@H]1c1ccccc1` [Example I-34], the “Maximum % activity (with co-corrector)” value was “+++ (≥350)” and the Emax is greater than 200%. Besides, the pEC50 under setting [1] is 5.00 to 6.00. Besides, the pEC50 under setting [2] is 5.00 to 6.00.

For the compound `COc1cc(C(F)(F)F)ccc1CN[C@H]1[C@H](C(C)(C)C)[C@@H](C(=O)O)N(C(=O)C2CCCCC2)[C@H]1c1cccnc1OC` [Example I-39], the “Maximum % activity (with co-corrector)” value is on record as “+++ (≥350)” and the Emax was in the range of 100 to 200%. Also, the pEC50 under setting [1] is 5.00 to 6.00. Besides, the pEC50 under setting [2] is greater than 6.00.

As to `COc1cc2ccccc2cc1CN[C@H]1[C@H](C(C)(C)C)[C@@H](C(=O)O)N(C(=O)C2CCCCC2)[C@H]1c1ccccc1` [Example I-42], the “Maximum % activity (with co-corrector)” value is on record as “+++ (≥350)” and the Emax is greater than 200%. Moreover, under setting [1], the pEC50 is 5.00 to 6.00. Besides, the pEC50 under setting [2] was greater than 6.00.

Turning to `COc1cc(C(F)(F)F)ccc1CN[C@H]1[C@H](C(C)(C)C)[C@@H](C(=O)O)N(C(=O)C2CCCCC2)[C@H]1c1ccccc1OC(F)F` [Example I-43], the “Maximum % activity (with co-corrector)” value is reported as “+++ (≥350)” and the Emax is less than 100%. The pEC50 under setting [1] was 5.00 to 6.00. Further, under setting [2], the pEC50 is 5.00 to 6.00.

For the compound `COc1cc(C(F)(F)F)ccc1CN[C@H]1[C@H](C(C)(C)C)[C@@H](C(=O)O)N(C(=O)C2CCCCC2)[C@H]1c1cccnc1N(C)C` [Example I-44], the “Maximum % activity (with co-corrector)” value is “+++ (≥350)” and the Emax was 100 to 200%. Also, the pEC50 under setting [1] is 5.00 to 6.00. In addition, the pEC50 under setting [2] is 5.00 to 6.00.

As to `COc1cc(C(F)(F)F)ccc1CN[C@@H]1[C@@H](C(C)(C)C)[C@H](C(=O)O)N(C(=O)[C@H](C)c2ccccc2)[C@@H]1c1ccccc1` [Example I-45], the “Maximum % activity (with co-corrector)” value is listed as “+ (<150)” and the Emax was less than 100%. Also, the pEC50 under setting [1] is less than 5.00. In addition, the negative logarithm of the EC50 (pEC50) under setting [2] is less than 5.00.

As for `CC(C)(C)[C@H]1[C@H](NCc2cc3ccccc3o2)[C@H](c2ccccc2)N(C(=O)C2CCCCC2)[C@@H]1C(=O)O` [Example I-46], the “Maximum % activity (with co-corrector)” value is “++ (≥150 and <350)”; the Emax is less than 100%. Moreover, the pEC50 under setting [1] was 5.00 to 6.00. For the same compound, the pEC50 under setting [2] was 5.00 to 6.00.

For orientation: pEC50 means −log10 of the EC50, conventionally taken in molar units.
